Assay results reported in US20210253718A1, “FRIZZLED5 PROTEIN-BINDING AGENTS” (Modmab Therapeutics Corporation, priority 2016, published 2021).

Assays:
FZD1 CRD = target: T1, FZD1 CRD (Homo sapiens, UniProt Q9UP38); assay: Immunofluorescence of anti-FZD5 Fab binding to CHO cells overexpressing Frizzled CRD; design: key: −: no binding; +: very weak binder; ++: weak binder; +++: good binder; ++++: very good binder
T1 construct: D112-P238; GPI anchor signal (C); expressed in transfected cells; host or cells: CHO cells, lentiviral pLenti-puro
Description: (§1) Plasmids: pLCKO lentiviral vector used for knockout (TKO) library construction and expression of individual gRNAs was constructed as described previously (Hart et al., 2015). Briefly, single guide RNA (sgRNA) scaffold was amplified from px330 (Addgene 42230) and cloned into pLKO.TRC005 lentiviral vector (Broad Institute, Cambridge, Mass.) using AgeI/EcoRI restriction sites. BfuAI sites were added at the 5′ end of the sgRNA scaffold for cloning the TKO library or individual gRNA target sequences. Lenti Cas9-2A-BsdR vector used to generate Cas9 stable expression cell lines was constructed as described previously (Hart et al., 2015). Briefly, lentiCRISPR pXPR_001 (Addgene 49535) was modified through removal of the sgRNA scaffold region through NdeI/EcoRI digest and blunt ends generation using Large Klenow Fragment (NEB). 2A-puro was replaced with 2A-BsdR by PCR using the NheI/MluI sites. Each of the 10 human Frizzled cysteine rich domains (CRDs) were cloned into the lentiviral expression plasmid pLenti-puro in the following cassette: FZD_CRD-MYC-GPI.
(§2) To confirm that the FZD5-WNT7B circuit is not driven simply by expression and rule out the possibility of a disconnect between RNA and protein levels for the Wnt receptors in HPAF-II cells, a panel of recombinant Fabs were generated, alternatively referred to herein as ‘Frizzled profiler’, that can detect and discriminate all but one of the ten Frizzled receptors. […] To characterize the binding specificity of these Fabs on cells, a panel of 10 CHO cell lines was generated, each expressing the CRD domain of a different myc-tagged Frizzled family member anchored at the plasma membrane through a GPI anchor (CHO-myc-FZDGPI). Despite the high sequence identity between Frizzled family members (FIG. 7A, FIG. 7B), selective Fabs were identified for FZD4, FZD5, FZD6 and FZD10 as assessed by immunofluorescence and flow cytometry (FIG. 7D and FIG. 8). […] The FZD8 CRD is most homologous to that of FZD5 (FIG. 7B). These Fabs can be used to discriminate expression of FZD1, FZD2, FZD4, FZD5, FZD6, FZD7, FZD8, FZD9 and FZD10 (FIG. 7D and FIG. 8). The ‘Frizzled profiler’ therefore consists of 10 different Fabs that can be used to discriminate expression of 9 different Frizzled family members. The Frizzled profiler was then used to confirm that HPAF-II cells express FZD1, FZD5, FZD6 and possibly FZD8 (FIG. 7E).
(§3) The binding of anti-FZD5 Fabs to cell surface-expressed Frizzled protein was further determined for each member of the Frizzled family via flow cytometry and immunofluorescence analysis of a panel of 10 CHO cell lines, each ectopically over-expressing the extracellular cysteine-rich domain (CRD) of a different Frizzled protein family member.

FZD3 CRD = target: T2, FZD3 CRD (Homo sapiens, UniProt Q9NPG1); assay: as above; design: key: −: no binding; +: very weak binder; ++: weak binder; +++: good binder; ++++: very good binder
T2 construct: CRD of FZD1, FZD2, FZD3, FZD4, FZD5, FZD6, FZD7, FZD8, FZD9 or FZD10; GPI anchor signal (C); expressed in transfected cells; host or cells: CHO cells, lentiviral pLenti-puro
T2 sequence (Q9NPG1 23-136 limits assumed): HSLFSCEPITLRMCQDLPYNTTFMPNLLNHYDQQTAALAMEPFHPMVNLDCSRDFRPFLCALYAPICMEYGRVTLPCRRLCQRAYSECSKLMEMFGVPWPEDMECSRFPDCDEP
Description: as §1, §2, §3

FZD4 CRD = target: T3, FZD4 CRD (Homo sapiens, UniProt Q9ULV1); assay: as above; design: key: −: no binding; +: very weak binder; ++: weak binder; +++: good binder; ++++: very good binder
T3 construct: E42-V167; GPI anchor signal (C); expressed in transfected cells; host or cells: CHO cells, lentiviral pLenti-puro
T3 sequence (Q9ULV1 42-167): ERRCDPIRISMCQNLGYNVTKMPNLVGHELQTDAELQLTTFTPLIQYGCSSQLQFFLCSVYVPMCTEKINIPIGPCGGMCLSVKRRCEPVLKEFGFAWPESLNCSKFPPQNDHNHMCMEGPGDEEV
Description: as §1, §2, §3

FZD5 CRD = target: T4, FZD5 CRD (Homo sapiens, UniProt Q13467); assay: as above; design: key: −: no binding; +: very weak binder; ++: weak binder; +++: good binder; ++++: very good binder
T4 construct: K29-T156; GPI anchor signal (C); expressed in transfected cells; host or cells: CHO cells, lentiviral pLenti-puro
T4 sequence (Q13467 29-156): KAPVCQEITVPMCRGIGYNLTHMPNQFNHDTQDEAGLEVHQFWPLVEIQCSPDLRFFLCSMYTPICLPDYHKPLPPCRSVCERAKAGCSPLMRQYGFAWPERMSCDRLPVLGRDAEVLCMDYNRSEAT
Description: as §1, §2, §3

FZD9 CRD = target: T5, FZD9 CRD (Homo sapiens, UniProt O00144); assay: as above; design: key: −: no binding; +: very weak binder; ++: weak binder; +++: good binder; ++++: very good binder
T5 construct: G35-A161; GPI anchor signal (C); expressed in transfected cells; host or cells: CHO cells, lentiviral pLenti-puro
T5 sequence (O00144 35-161): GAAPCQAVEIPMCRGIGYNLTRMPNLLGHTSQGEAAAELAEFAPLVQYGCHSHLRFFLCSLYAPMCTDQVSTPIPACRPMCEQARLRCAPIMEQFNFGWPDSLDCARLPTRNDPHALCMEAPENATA
Description: as §1, §2, §3

ASPC-1 cells [1] = assay: Effect of anti-FZD5 Fabs on proliferation of pancreatic cancer cell lines (percent growth inhibition); assay type: cell-based, human; details: Fab 10 μg/ml
Description: (§4) The effect of presently disclosed anti-FZD5 Fabs on proliferation of RNF43 loss-of-function mutant pancreatic cancer cell lines HPAFII, PATU8988S and ASPC-1; and on pancreatic cancer cell line RWP1, was tested at […] and 10 μg/ml.

HPAFII cells = assay: as above; assay type: cell-based, human
Description: as §4

PATU8988S cells = assay: as above; assay type: cell-based, human; details: Fab 10 μg/ml
Description: as §4

RWP1 cells [2] = assay: as above; assay type: cell-based, human; details: Fab 10 μg/ml
Description: as §4

ASPC-1 cells [3] = assay: as above; assay type: cell-based, human; details: Fab 2 μg/ml
RWP1 cells [4] = assay: as above; assay type: cell-based, human; details: Fab 2 μg/ml

- Immunofluorescence binding, Frizzled CRD overexpressed on CHO cells: FZD1 (FZD1 CRD): −
- Immunofluorescence binding, Frizzled CRD overexpressed on CHO cells: FZD3 (FZD3 CRD): −
- Immunofluorescence binding, Frizzled CRD overexpressed on CHO cells: FZD4 (FZD4 CRD): −
- Immunofluorescence binding, Frizzled CRD overexpressed on CHO cells: FZD5 (FZD5 CRD): ++++
- Immunofluorescence binding, Frizzled CRD overexpressed on CHO cells: FZD9 (FZD9 CRD): −
Substance: Fab-2931: anti-FZD5 Fab with antibody variable region Fv-2931; CDR SEQ ID NOs: 35, 36, 70, 102, 146, 176 (CDR 1 QSVSSA; CDR 2 SAS; CDR 3 QQSSYSLIT; CDR 4 GFNLSYSS; CDR 5 ISPYSGST; CDR 6 ARGSYWYVGGGWWVSGHGGMDY)
- percent growth inhibition, ASPC-1 10 μg/ml (ASPC-1 cells [1]): 39.20%
- percent growth inhibition, HPAFII 2 μg/ml (HPAFII cells; Fab 2 μg/ml): −19.38%
- percent growth inhibition, HPAFII 10 μg/ml (HPAFII cells; Fab 10 μg/ml): 11.37%
- percent growth inhibition, PATU8988s 10 μg/ml (PATU8988S cells): −17.27%
- percent growth inhibition, RWP1 10 μg/ml (RWP1 cells [2]): 18.70%
- percent growth inhibition, ASPC-1 2 μg/ml (ASPC-1 cells [3]): 10.33%
- percent growth inhibition, RWP1 2 μg/ml (RWP1 cells [4]): 15.35%
